Laboratory results: patent publication US7625948B2, “Ester compound and medicinal use thereof” (Japan Tobacco Inc., priority 2002, dated 2009)
Where two headings read alike, the source gives them in different places. Values belong to the molecule of their own block, whether it stands above or below them.

Tested on: HepG2 cells
Experiment: Test Example 2: inhibition of apolipoprotein B secretion from HepG2 cells, ELISA (also used for metabolites in Test Example 8)
Format: cell-based
Conditions: Homo sapiens
Protocol: Inhibition of Apolipoprotein B Secretion from HepG2 Cells
HepG2 cells were suspended in Dulbecco's Modified Eagle's Medium (DMEM) (containing 10% fetal bovine serum, 100 units/mL penicillin and 100 μg/mL streptomycin), and placed on a 96-well plate (4×10^4 cells/well), then incubated for 24 hours. After removal of the medium, DMEM was replaced by a medium containing a sample dissolved in DMSO or a medium containing DMSO (concentration of DMSO: 0.5%) and incubation was further performed for 24 hours, after which the supernatant was recovered, and concentration of apo B in the supernatant was assayed by Enzyme-Linked Immunosorbent Assay (ELISA)
ELISA was carried out as follows. Anti-human apo B monoclonal antibody (0.5 μg/well) diluted with a solution of sodium carbonate in sodium bicarbonate buffer (50 mL, pH 9.6) was placed in a 96-well plate for ELISA, and allowed to stand at room temperature for 15 hours. After washing the plate, a blocking solution (250 μL/well) was placed in the well, and allowed to stand at room temperature for 1.5 hours. After washing the plate, a standard and a sample (100 μL/well) were placed in the well and allowed to stand at room temperature for one hour. The standard was prepared by adjusting the concentration of the purified human apo B with the DMEM to 0 to 1000 ng/mL. After washing the plate, an anti-human apo B polyclonal antibody labeled with a horse radish peroxidase which was diluted in 1:1000 with DEME (100 μL/well), and allowed to stand at room temperature for one hour. After washing the plate, 2,2-azinobis(3-ethylbenzothiazoline-6-sulfonic acid) solution (100 μL/well) was placed in the well, and allowed to stand at room temperature for one hour. The reaction was stopped by addition of 2% oxalic acid (100 μL/well), and absorbency at 405 nm was measured. Concentration of apo B in the sample was calculated on the basis of a standard curve of the standard. Inhibition rate (%) was calculated from the assayed values in accordance with the following equation.
Inhibition rate (%)=100×(1 minus (concentration of apo B in sample group/concentration of apo B in DMSO group).
Based on the above equation, 50% inhibition concentration (IC50) was determined.
Inhibitory Activity on MTP and apo B Secretion Inhibition by Metabolites
In a similar manner to Test Examples 1 and 2, the activity of metabolites was assayed.

[1] = 24 hours, apo B in supernatant by ELISA, read-out: Test Example 2 Inhibition of apo B secretion IC50

SMILES: O=C(O)Cc1ccc(NC(=O)c2ccccc2-c2ccc(C(F)(F)F)cc2)c(C(=O)N2CCCC2)c1
IC50 (main metabolites of the compounds (Test Example 8), read-out: Inhibition of apo B secretion IC50): > 10000 nM

SMILES: CCOC(=O)C(COC(=O)Cc1ccc(NC(=O)c2sc(C)nc2-c2ccc(C(F)(F)F)cc2)cc1)(C(=O)OCC)c1ccccc1 [Example 1-74]
IC50 [1]: 680 nM

SMILES: CCNC(=O)C(COC(=O)Cc1ccc(NC(=O)c2cccnc2-c2ccc(C(F)(F)F)cc2)cc1)(C(=O)NCC)c1ccccc1 [Example 1-76]
IC50 [1]: 120 nM

SMILES: CCNC(=O)C(COC(=O)Cc1ccc(NC(=O)c2cccnc2-c2ccc(C(F)(F)F)cc2)c(C)c1)(C(=O)NCC)c1ccccc1 [Example 1-77]
IC50 [1]: 360 nM

SMILES: CCOC(=O)C(COC(=O)Cc1ccc(NC(=O)c2ccccc2-c2ccc(C(F)(F)F)cc2)c(CC)c1)(C(=O)OCC)c1ccccc1 [Example 1-78]
IC50 [1]: 11 nM

SMILES: CCNC(=O)C(COC(=O)Cc1ccc(NC(=O)c2ccccc2-c2ccc(C(F)(F)F)cc2)c(C(C)C)c1)(C(=O)NCC)c1ccccc1 [Example 1-79]
IC50 [1]: 0.59 nM

SMILES: CCOC(=O)C(COC(=O)Cc1ccc(NC(=O)c2ccccc2-c2ccc(C(F)(F)F)cc2)c(C(C)C)c1)(C(=O)OCC)c1ccccc1 [Example 1-80]
IC50 [1]: 8.2 nM

SMILES: CCNC(=O)C(COC(=O)Cc1ccc(NC(=O)c2ccccc2-c2ccc(C(F)(F)F)cc2)c(CC(C)C)c1)(C(=O)NCC)c1ccccc1 [Example 1-82]
IC50 [1]: 0.53 nM

SMILES: CCOC(=O)C(COC(=O)Cc1ccc(NC(=O)c2ccccc2-c2ccc(C(F)(F)F)cc2)c(Br)c1)(C(=O)OCC)c1ccccc1 [Example 1-85]
IC50 [1]: 3.2 nM

SMILES: CCOC(=O)C(COC(=O)Cc1ccc(NC(=O)c2ccccc2-c2ccc(C(F)(F)F)cc2)c(C(=O)N(CC)CC)c1)(C(=O)OCC)c1ccccc1 [Example 2-10]
IC50 [1]: 1.4 nM

SMILES: CCNC(=O)C(COC(=O)Cc1ccc(NC(=O)c2ccccc2-c2ccc(C(F)(F)F)cc2)c(C(=O)N(C)C(C)C)c1)(C(=O)NCC)c1ccccc1 [Example 2-12]
IC50 [1]: 7 nM

SMILES: CCNC(=O)C(COC(=O)Cc1ccc(NC(=O)c2ccccc2-c2ccc(C(F)(F)F)cc2)c(C(=O)N2CCCCC2)c1)(C(=O)NCC)c1ccccc1 [Example 2-16]
IC50 [1]: 2.7 nM

SMILES: CCCN(C)C(=O)c1cc(CC(=O)OCC(C(=O)NCC)(C(=O)NCC)c2ccccc2)ccc1NC(=O)c1ccccc1-c1ccc(C(F)(F)F)cc1 [Example 2-19]
IC50 [1]: 26 nM

SMILES: CCCN(C)C(=O)c1cc(CC(=O)OCCC(C(=O)NCC)(C(=O)NCC)c2ccccc2)ccc1NC(=O)c1ccccc1-c1ccc(C(F)(F)F)cc1 [Example 2-20]
IC50 [1]: 0.64 nM

SMILES: CC(C)N[C@@H](COC(=O)Cc1ccc(NC(=O)c2ccccc2-c2ccc(C(F)(F)F)cc2)c(C(=O)N(C)C)c1)c1ccccc1 [Example 2-29]
IC50 [1]: 91 nM

SMILES: CCOC(=O)C(CCOC(=O)Cc1ccc(NC(=O)c2ccccc2-c2ccc(C(F)(F)F)cc2)c(C(=O)N(C)C)c1)(C(=O)OCC)c1ccccc1 [Example 2-32]
IC50 [1]: 1.7 nM

SMILES: CCOC(=O)C(COC(=O)Cc1ccc(NC(=O)c2ccccc2-c2ccc(F)cc2)c(C(=O)N(C)C)c1)(C(=O)OCC)c1ccccc1 [Example 2-33]
IC50 [1]: 13 nM

SMILES: CCOC(=O)C(COC(=O)Cc1ccc(NC(=O)c2ccccc2-c2ccc(Br)cc2)c(C(=O)N(C)C)c1)(C(=O)OCC)c1ccccc1 [Example 2-34]
IC50 [1]: 2 nM

SMILES: CC(=O)N[C@H](COC(=O)Cc1ccc(NC(=O)c2ccccc2-c2ccc(C(F)(F)F)cc2)c(C(=O)N(C)C)c1)c1ccccc1 [Example 2-35]
IC50 [1]: 38 nM

SMILES: CCCC(=O)N[C@H](COC(=O)Cc1ccc(NC(=O)c2ccccc2-c2ccc(C(F)(F)F)cc2)c(C(=O)N(C)C)c1)c1ccccc1 [Example 2-36]
IC50 [1]: 7.4 nM

SMILES: CCOC(=O)C(COC(=O)Cc1ccc(NC(=O)c2ccccc2-c2ccc(C(F)(F)F)cc2)c(C(=O)N(C)C)c1)(C(=O)OCC)C1CCCC1 [Example 2-40]
IC50 [1]: 0.99 nM

SMILES: CCOC(=O)C(COC(=O)Cc1ccc(NC(=O)c2ccccc2-c2ccc(C(F)(F)F)cc2)c(C(=O)N(C)C)c1)(C(=O)OCC)C1CCCCC1 [Example 2-41]
IC50 [1]: 1.2 nM

SMILES: CCOC(=O)C(COC(=O)Cc1ccc(NC(=O)c2ccccc2-c2ccc(C(C)=O)cc2)c(C(=O)N(C)C)c1)(C(=O)OCC)c1ccccc1 [Example 2-43]
IC50 [1]: 9 nM

SMILES: CCNC(=O)C(COC(=O)Cc1ccc(NC(=O)c2ccccc2Oc2ccccc2)c(C(=O)N(C)C)c1)(C(=O)NCC)c1ccccc1 [Example 2-44]
IC50 [1]: 33 nM

SMILES: CCOC(=O)C(COC(=O)Cc1ccc(NC(=O)c2ccccc2Oc2ccccc2)c(C(=O)N(C)C)c1)(C(=O)OCC)c1ccccc1 [Example 2-45]
IC50 [1]: 39 nM

SMILES: CN(C)C(=O)c1cc(CC(=O)OC[C@@H](NS(C)(=O)=O)c2ccccc2)ccc1NC(=O)c1ccccc1-c1ccc(C(F)(F)F)cc1 [Example 2-49]
IC50 [1]: 49 nM

SMILES: CCOC(=O)C(COC(=O)Cc1ccc(NC(=O)c2ccccc2-c2ccc(C(F)(F)F)cc2)c(C(=O)N(C)C)c1)c1ccccc1 (stereo not drawn) [Example 2-50]
IC50 [1]: 21 nM

SMILES: CCC(=O)N(C)[C@H](COC(=O)Cc1ccc(NC(=O)c2ccccc2-c2ccc(C(F)(F)F)cc2)c(C(=O)N(C)C)c1)c1ccccc1 [Example 2-51]
IC50 [1]: 47 nM

SMILES: CCOC(=O)C(COC(=O)Cc1ccc(NC(=O)c2ccc(OC)cc2-c2ccc(C(F)(F)F)cc2)c(C(=O)N(C)C)c1)(C(=O)OCC)c1ccccc1 [Example 2-53]
IC50 [1]: 4.6 nM

SMILES: CCOC(=O)C(COC(=O)Cc1ccc(NC(=O)c2ccc(Cl)cc2-c2ccc(C(F)(F)F)cc2)c(C(=O)N(C)C)c1)(C(=O)OCC)c1ccccc1 [Example 2-54]
IC50 [1]: 8.5 nM

SMILES: CN(C)C(=O)c1cc(CC(=O)OCC(C(=O)OCC(F)(F)F)(C(=O)OCC(F)(F)F)c2ccccc2)ccc1NC(=O)c1ccccc1-c1ccc(C(F)(F)F)cc1 [Example 2-56]
IC50 [1]: 0.93 nM

SMILES: CCOC(=O)C(COC(=O)Cc1ccc(NC(=O)c2ccccc2-c2ccc(C(F)(F)F)cc2F)c(C(=O)N(C)C)c1)(C(=O)OCC)c1ccccc1 [Example 2-57]
IC50 [1]: 0.56 nM

SMILES: CCOC(=O)C(COC(=O)Cc1cc(Br)c(NC(=O)c2ccccc2-c2ccc(C(F)(F)F)cc2)c(C(=O)N(C)C)c1)(C(=O)OCC)c1ccccn1 [Example 2-59]
IC50 [1]: 0.99 nM

The next lines start with the values.

IC50 [1]: 39 nM
SMILES: COCCNC(=O)C(COC(=O)Cc1ccc(NC(=O)c2ccccc2-c2ccc(C(F)(F)F)cc2)cc1)(C(=O)NCCOC)c1ccccc1 [Example 1-73]

IC50 [1]: 97 nM
SMILES: CCNC(=O)C(COC(=O)Cc1ccc(NC(=O)c2sc(C)nc2-c2ccc(C(F)(F)F)cc2)cc1)(C(=O)NCC)c1ccccc1 [Example 1-75]

IC50 [1]: 0.49 nM
SMILES: CCNC(=O)C(CCOC(=O)Cc1ccc(NC(=O)c2ccccc2-c2ccc(C(F)(F)F)cc2)c(CC)c1)(C(=O)NCC)c1ccccc1 [Example 1-81]

IC50 [1]: 0.23 nM
SMILES: CCOC(=O)C(COC(=O)Cc1ccc(NC(=O)c2ccccc2-c2ccc(C(F)(F)F)cc2)c(CC(C)C)c1)(C(=O)OCC)c1ccccc1 [Example 1-83]

IC50 [1]: 4.4 nM
SMILES: CCOC(=O)C(COC(=O)Cc1ccc(NC(=O)c2ccccc2-c2ccc(C(F)(F)F)cc2)c(Cl)c1)(C(=O)OCC)c1ccccc1 [Example 1-84]

IC50 [1]: 28 nM
SMILES: CCC(=O)N[C@@H](COC(=O)Cc1ccc(NC(=O)c2ccccc2-c2ccc(C(F)(F)F)cc2)c(C(=O)N(C)C)c1)c1ccccc1 [Example 2-24]

IC50 [1]: 8.2 nM
SMILES: CN(C)C(=O)c1cc(CC(=O)OC[C@H](c2ccccc2)N2C(=O)CCC2=O)ccc1NC(=O)c1ccccc1-c1ccc(C(F)(F)F)cc1 [Example 2-26]

IC50 [1]: 27 nM
SMILES: CCNC(=O)C(COC(=O)Cc1ccc(NC(=O)c2ccccc2C(F)(F)F)c(C(=O)N(C)C)c1)(C(=O)NCC)c1ccccc1 [Example 2-30]

IC50 [1]: 43 nM
SMILES: CCOC(=O)C(COC(=O)Cc1ccc(NC(=O)c2ccccc2C(F)(F)F)c(C(=O)N(C)C)c1)(C(=O)OCC)c1ccccc1 [Example 2-31]

IC50 [1]: 1.8 nM
SMILES: CCOC(=O)C(COC(=O)Cc1ccc(NC(=O)c2ccccc2-c2ccc(Cl)cc2)c(C(=O)N(C)C)c1)(C(=O)OCC)c1ccccc1 [Example 2-42]

IC50 [1]: 2.9 nM
SMILES: CCOC(=O)C(COC(=O)Cc1ccc(NC(=O)c2ccccc2-c2ccc(C#N)cc2)c(C(=O)N(C)C)c1)(C(=O)OCC)c1ccccc1 [Example 2-46]

IC50 [1]: 1.2 nM
SMILES: CCOC(=O)C(COC(=O)Cc1ccc(NC(=O)c2cc(C)ccc2-c2ccc(C(F)(F)F)cc2)c(C(=O)N(C)C)c1)(C(=O)OCC)c1ccccc1 [Example 2-47]

IC50 [1]: 4.2 nM
SMILES: CCOC(=O)C(COC(=O)Cc1ccc(NC(=O)c2cccc(C)c2-c2ccc(C(F)(F)F)cc2)c(C(=O)N(C)C)c1)(C(=O)OCC)c1ccccc1 [Example 2-55]

IC50 [1]: 1.9 nM
SMILES: CCOC(=O)C(COC(=O)Cc1cc(C(=O)N(C)C)c(NC(=O)c2ccccc2-c2ccc(C(F)(F)F)cc2)cc1F)(C(=O)OCC)c1ccccc1 [Example 2-58]

IC50 [1]: 1.3 nM
SMILES: CCOC(=O)C(COC(=O)Cc1cc(Cl)c(NC(=O)c2ccccc2-c2ccc(C(F)(F)F)cc2)c(C(=O)N(C)C)c1)(C(=O)OCC)c1ccccc1 [Example 2-60]
